In PubChem BioAssay AID1259407 (Chemical Carcinogenesis Research Information System (CCRIS), 2018):
Active and inactive are the calls of the source. How the calls were made is not given here.

Tested on: CCRIS mutagenicity, Ames/micronucleus/aberration tests
Experiment: CCRIS mutagenicity studies
[1] = Test System: AMES SALMONELLA TYPHIMURIUM, Strain/Indicator: TA100, Metabolic Activation: NONE, Method: PREINCUBATION

C=CC(=O)OC was tested, and the mutagenic call (Test System: AMES SALMONELLA TYPHIMURIUM, Strain/Indicator: TA97, Metabolic Activation: HAMSTER, LIVER, S-9, AROCLOR 1254 (10%), Method: PREINCUBATION) was “inactive; negative”, the mutagenic call (Test System: AMES SALMONELLA TYPHIMURIUM, Strain/Indicator: TA97, Metabolic Activation: HAMSTER, LIVER, S-9, AROCLOR 1254 (30%), Method: PREINCUBATION) was “inactive; negative” and the mutagenic call (Test System: AMES SALMONELLA TYPHIMURIUM, Strain/Indicator: TA97, Metabolic Activation: NONE, Method: PREINCUBATION) was “inactive; negative”. For the same molecule, the mutagenic call (Test System: AMES SALMONELLA TYPHIMURIUM, Strain/Indicator: TA97, Metabolic Activation: RAT, LIVER, S-9, AROCLOR 1254 (10 OR 30%), Method: PREINCUBATION) was “inactive; negative”, the mutagenic call (Test System: AMES SALMONELLA TYPHIMURIUM, Strain/Indicator: TA98, Metabolic Activation: HAMSTER, LIVER, S-9, AROCLOR 1254 (10%), Method: PREINCUBATION) was “inactive; negative” and the mutagenic call (Test System: AMES SALMONELLA TYPHIMURIUM, Strain/Indicator: TA98, Metabolic Activation: HAMSTER, LIVER, S-9, AROCLOR 1254 (30%), Method: PREINCUBATION) was “inactive; negative”. The mutagenic call (Test System: AMES SALMONELLA TYPHIMURIUM, Strain/Indicator: TA98, Metabolic Activation: NONE, Method: PREINCUBATION) was “inactive; negative”, the mutagenic call (Test System: AMES SALMONELLA TYPHIMURIUM, Strain/Indicator: TA98, Metabolic Activation: NONE, Method: STANDARD PLATE) was “inactive; negative” and the mutagenic call (Test System: AMES SALMONELLA TYPHIMURIUM, Strain/Indicator: TA98, Metabolic Activation: RAT, LIVER, S-9, AROCLOR 1254 (10%), Method: PREINCUBATION) was “inactive; negative”. The mutagenic call (Test System: AMES SALMONELLA TYPHIMURIUM, Strain/Indicator: TA98, Metabolic Activation: RAT, LIVER, S-9, AROCLOR 1254 (30%), Method: PREINCUBATION) was “inactive; negative”, the mutagenic call (Test System: AMES SALMONELLA TYPHIMURIUM, Strain/Indicator: TA98, Metabolic Activation: RAT, LIVER, S-9, AROCLOR 1254, Method: STANDARD PLATE) was “inactive; negative” and the mutagenic call (Test System: AMES SALMONELLA TYPHIMURIUM, Strain/Indicator: TA98, Metabolic Activation: RAT, LIVER, S-9, SODIUM PHENOBARBITAL, Method: STANDARD PLATE) was “inactive; negative”. The mutagenic call (Test System: AMES SALMONELLA TYPHIMURIUM, Strain/Indicator: TA100, Metabolic Activation: HAMSTER, LIVER, S-9, AROCLOR 1254 (10%), Method: PREINCUBATION) was “inactive; negative”, the mutagenic call (Test System: AMES SALMONELLA TYPHIMURIUM, Strain/Indicator: TA100, Metabolic Activation: HAMSTER, LIVER, S-9, AROCLOR 1254 (30%), Method: PREINCUBATION) was “inactive; negative” and the mutagenic call [1] was “inactive; negative”. The mutagenic call (Test System: AMES SALMONELLA TYPHIMURIUM, Strain/Indicator: TA100, Metabolic Activation: NONE, Method: STANDARD PLATE) was “inactive; negative”, the mutagenic call (Test System: AMES SALMONELLA TYPHIMURIUM, Strain/Indicator: TA100, Metabolic Activation: RAT, LIVER, S-9, AROCLOR 1254 (10 OR 30%), Method: PREINCUBATION) was “inactive; negative” and the mutagenic call (Test System: AMES SALMONELLA TYPHIMURIUM, Strain/Indicator: TA100, Metabolic Activation: RAT, LIVER, S-9, AROCLOR 1254, Method: PREINCUBATION) was “inactive; negative”. The mutagenic call (Test System: AMES SALMONELLA TYPHIMURIUM, Strain/Indicator: TA100, Metabolic Activation: RAT, LIVER, S-9, AROCLOR 1254, Method: STANDARD PLATE) was “inactive; negative”, the mutagenic call (Test System: AMES SALMONELLA TYPHIMURIUM, Strain/Indicator: TA100, Metabolic Activation: RAT, LIVER, S-9, SODIUM PHENOBARBITAL, Method: STANDARD PLATE) was “inactive; negative” and the mutagenic call (Test System: AMES SALMONELLA TYPHIMURIUM, Strain/Indicator: TA1535, Metabolic Activation: HAMSTER, LIVER, S-9, AROCLOR 1254 (10%), Method: PREINCUBATION) was “inactive; negative”. For the same molecule, the mutagenic call (Test System: AMES SALMONELLA TYPHIMURIUM, Strain/Indicator: TA1535, Metabolic Activation: HAMSTER, LIVER, S-9, AROCLOR 1254 (30%), Method: PREINCUBATION) was “inactive; negative”, the mutagenic call (Test System: AMES SALMONELLA TYPHIMURIUM, Strain/Indicator: TA1535, Metabolic Activation: NONE, Method: PREINCUBATION) was “inactive; negative” and the mutagenic call (Test System: AMES SALMONELLA TYPHIMURIUM, Strain/Indicator: TA1535, Metabolic Activation: NONE, Method: STANDARD PLATE) was “inactive; negative”. For the same molecule, the mutagenic call (Test System: AMES SALMONELLA TYPHIMURIUM, Strain/Indicator: TA1535, Metabolic Activation: RAT, LIVER, S-9, AROCLOR 1254 (10%), Method: PREINCUBATION) was “inactive; negative”, the mutagenic call (Test System: AMES SALMONELLA TYPHIMURIUM, Strain/Indicator: TA1535, Metabolic Activation: RAT, LIVER, S-9, AROCLOR 1254 (30%), Method: PREINCUBATION) was “inactive; negative” and the mutagenic call (Test System: AMES SALMONELLA TYPHIMURIUM, Strain/Indicator: TA1535, Metabolic Activation: RAT, LIVER, S-9, AROCLOR 1254, Method: STANDARD PLATE) was “inactive; negative”. The mutagenic call (Test System: AMES SALMONELLA TYPHIMURIUM, Strain/Indicator: TA1535, Metabolic Activation: RAT, LIVER, S-9, SODIUM PHENOBARBITAL, Method: STANDARD PLATE) was “inactive; negative”, the mutagenic call (Test System: AMES SALMONELLA TYPHIMURIUM, Strain/Indicator: TA1537, Metabolic Activation: HAMSTER, LIVER, S-9, AROCLOR 1254 (10%), Method: PREINCUBATION) was “inactive; negative” and the mutagenic call (Test System: AMES SALMONELLA TYPHIMURIUM, Strain/Indicator: TA1537, Metabolic Activation: NONE, Method: PREINCUBATION) was “inactive; negative”. For the same molecule, the mutagenic call (Test System: AMES SALMONELLA TYPHIMURIUM, Strain/Indicator: TA1537, Metabolic Activation: NONE, Method: STANDARD PLATE) was “inactive; negative”, the mutagenic call (Test System: AMES SALMONELLA TYPHIMURIUM, Strain/Indicator: TA1537, Metabolic Activation: RAT, LIVER, S-9, AROCLOR 1254 (10%), Method: PREINCUBATION) was “inactive; negative” and the mutagenic call (Test System: AMES SALMONELLA TYPHIMURIUM, Strain/Indicator: TA1537, Metabolic Activation: RAT, LIVER, S-9, AROCLOR 1254, Method: STANDARD PLATE) was “inactive; negative”. For the same molecule, the mutagenic call (Test System: AMES SALMONELLA TYPHIMURIUM, Strain/Indicator: TA1537, Metabolic Activation: RAT, LIVER, S-9, SODIUM PHENOBARBITAL, Method: STANDARD PLATE) was “inactive; negative”, the mutagenic call (Test System: AMES SALMONELLA TYPHIMURIUM, Strain/Indicator: TA1538, Metabolic Activation: NONE, Method: STANDARD PLATE) was “inactive; negative” and the mutagenic call (Test System: AMES SALMONELLA TYPHIMURIUM, Strain/Indicator: TA1538, Metabolic Activation: RAT, LIVER, S-9, AROCLOR 1254, Method: STANDARD PLATE) was “inactive; negative”. The mutagenic call (Test System: AMES SALMONELLA TYPHIMURIUM, Strain/Indicator: TA1538, Metabolic Activation: RAT, LIVER, S-9, SODIUM PHENOBARBITAL, Method: STANDARD PLATE) was “inactive; negative”, the mutagenic call (Test System: CHINESE HAMSTER OVARY, Strain/Indicator: CHO-K1-BH4 (HGPRT)/6-THIOGUANINE, Metabolic Activation: NONE, Method: SUSPENSION/PLATE) was “active; positive” and the mutagenic call (Test System: CHINESE HAMSTER OVARY, Strain/Indicator: CHO-K1-BH4 (HGPRT), Metabolic Activation: NONE, Method: SUSPENSION/PLATE) was “active; positive”. For the same molecule, the mutagenic call (Test System: MOUSE LYMPHOMA, Strain/Indicator: L5178Y (TK+/TK-), Metabolic Activation: RAT, LIVER, S-9, AROCLOR 1254, Method: SUSPENSION/PLATE) was “active; positive. reevaluation of results: positive”.
With Nc1nc2c([nH]c(=O)n2[C@H]2C[C@H](O)[C@@H](CO)O2)c(=O)[nH]1 the mutagenic call [1] was “inactive; negative”.
